# Test system: Staphylococcus aureus
# Assay: Antibacterial activity against methicillin-sensitive Staphylococcus aureus ATCC 29213 after 18 hrs by agar dilution method
# Format: functional
# Conditions: ATCC 29213, 18 h
row,Structure (SMILES),MIC [µg/mL]
1,COc1ccc2c(c[n+]3c4c2cc(Cc2cc(C)cc(C)c2)c2c5c(cc(c24)CC3)OCO5)c1OC.[Br-],4
2,COc1ccc2c(c[n+]3c4c2cc(Cc2cccc(C)c2)c2c5c(cc(c24)CC3)OCO5)c1OC.[Br-],2
3,COc1ccc2c(c[n+]3c4c2cc(C(C)c2ccccc2)c2c5c(cc(c24)CC3)OCO5)c1OC.[Br-] (stereo not drawn),2
4,COc1ccc2c(c[n+]3c4c2cc(Cc2ccc(F)c(C(F)(F)F)c2)c2c5c(cc(c24)CC3)OCO5)c1OC.[Br-],32
5,COc1ccc2c(c[n+]3c4c2cc(Cc2cccnc2)c2c5c(cc(c24)CC3)OCO5)c1OC.[Br-],16
6,COc1ccc2c(c[n+]3c4c2cc(Cc2c(F)cccc2F)c2c5c(cc(c24)CC3)OCO5)c1OC.[Br-],4

# Test system: Staphylococcus aureus
# Assay: Antibacterial activity against methicillin-sensitive Staphylococcus aureus 16-1 clinical isolate after 18 hrs by agar dilution method
# Format: functional
# Conditions: 16-1, 18 h
row,Structure (SMILES),MIC [µg/mL]
1,COc1ccc2c(c[n+]3c4c2cc(Cc2cc(C)cc(C)c2)c2c5c(cc(c24)CC3)OCO5)c1OC.[Br-],4
2,COc1ccc2c(c[n+]3c4c2cc(Cc2cccc(C)c2)c2c5c(cc(c24)CC3)OCO5)c1OC.[Br-],2
3,COc1ccc2c(c[n+]3c4c2cc(C(C)c2ccccc2)c2c5c(cc(c24)CC3)OCO5)c1OC.[Br-] (stereo not drawn),2
4,COc1ccc2c(c[n+]3c4c2cc(Cc2ccc(F)c(C(F)(F)F)c2)c2c5c(cc(c24)CC3)OCO5)c1OC.[Br-],8
5,COc1ccc2c(c[n+]3c4c2cc(Cc2cccnc2)c2c5c(cc(c24)CC3)OCO5)c1OC.[Br-],16
6,COc1ccc2c(c[n+]3c4c2cc(Cc2c(F)cccc2F)c2c5c(cc(c24)CC3)OCO5)c1OC.[Br-],4

# Test system: Staphylococcus aureus
# Assay: Antibacterial activity against methicillin-resistant Staphylococcus aureus ATCC 33591 after 18 hrs by agar dilution method
# Format: functional
# Conditions: ATCC 33591, 18 h
row,Structure (SMILES),MIC [µg/mL]
1,COc1ccc2c(c[n+]3c4c2cc(Cc2cc(C)cc(C)c2)c2c5c(cc(c24)CC3)OCO5)c1OC.[Br-],4
2,COc1ccc2c(c[n+]3c4c2cc(Cc2cccc(C)c2)c2c5c(cc(c24)CC3)OCO5)c1OC.[Br-],4
3,COc1ccc2c(c[n+]3c4c2cc(C(C)c2ccccc2)c2c5c(cc(c24)CC3)OCO5)c1OC.[Br-] (stereo not drawn),2
4,COc1ccc2c(c[n+]3c4c2cc(Cc2ccc(F)c(C(F)(F)F)c2)c2c5c(cc(c24)CC3)OCO5)c1OC.[Br-],32
5,COc1ccc2c(c[n+]3c4c2cc(Cc2cccnc2)c2c5c(cc(c24)CC3)OCO5)c1OC.[Br-],32
6,COc1ccc2c(c[n+]3c4c2cc(Cc2c(F)cccc2F)c2c5c(cc(c24)CC3)OCO5)c1OC.[Br-],8

# Test system: Staphylococcus aureus
# Assay: Antibacterial activity against methicillin-resistant Staphylococcus aureus ATCC 43300 after 18 hrs by agar dilution method
# Format: functional
# Conditions: ATCC 43300, 18 h
row,Structure (SMILES),MIC [µg/mL]
1,COc1ccc2c(c[n+]3c4c2cc(Cc2cc(C)cc(C)c2)c2c5c(cc(c24)CC3)OCO5)c1OC.[Br-],8
2,COc1ccc2c(c[n+]3c4c2cc(Cc2cccc(C)c2)c2c5c(cc(c24)CC3)OCO5)c1OC.[Br-],4
3,COc1ccc2c(c[n+]3c4c2cc(C(C)c2ccccc2)c2c5c(cc(c24)CC3)OCO5)c1OC.[Br-] (stereo not drawn),4
4,COc1ccc2c(c[n+]3c4c2cc(Cc2ccc(F)c(C(F)(F)F)c2)c2c5c(cc(c24)CC3)OCO5)c1OC.[Br-],32
5,COc1ccc2c(c[n+]3c4c2cc(Cc2cccnc2)c2c5c(cc(c24)CC3)OCO5)c1OC.[Br-],> 64
6,COc1ccc2c(c[n+]3c4c2cc(Cc2c(F)cccc2F)c2c5c(cc(c24)CC3)OCO5)c1OC.[Br-],8

# Test system: Staphylococcus aureus
# Assay: Antibacterial activity against methicillin-resistant Staphylococcus aureus ATCC BAA-976 after 18 hrs by agar dilution method
# Format: functional
# Conditions: ATCC BAA-976, 18 h
row,Structure (SMILES),MIC [µg/mL]
1,COc1ccc2c(c[n+]3c4c2cc(Cc2cc(C)cc(C)c2)c2c5c(cc(c24)CC3)OCO5)c1OC.[Br-],2
2,COc1ccc2c(c[n+]3c4c2cc(Cc2cccc(C)c2)c2c5c(cc(c24)CC3)OCO5)c1OC.[Br-],2
3,COc1ccc2c(c[n+]3c4c2cc(C(C)c2ccccc2)c2c5c(cc(c24)CC3)OCO5)c1OC.[Br-] (stereo not drawn),1
4,COc1ccc2c(c[n+]3c4c2cc(Cc2ccc(F)c(C(F)(F)F)c2)c2c5c(cc(c24)CC3)OCO5)c1OC.[Br-],32
5,COc1ccc2c(c[n+]3c4c2cc(Cc2cccnc2)c2c5c(cc(c24)CC3)OCO5)c1OC.[Br-],16
6,COc1ccc2c(c[n+]3c4c2cc(Cc2c(F)cccc2F)c2c5c(cc(c24)CC3)OCO5)c1OC.[Br-],2

# Test system: Staphylococcus aureus
# Assay: Antibacterial activity against methicillin-resistant Staphylococcus aureus ATCC BAA-1708 after 18 hrs by agar dilution method
# Format: functional
# Conditions: ATCC BAA-1708, 18 h
row,Structure (SMILES),MIC [µg/mL]
1,COc1ccc2c(c[n+]3c4c2cc(Cc2cc(C)cc(C)c2)c2c5c(cc(c24)CC3)OCO5)c1OC.[Br-],8
2,COc1ccc2c(c[n+]3c4c2cc(Cc2cccc(C)c2)c2c5c(cc(c24)CC3)OCO5)c1OC.[Br-],4
3,COc1ccc2c(c[n+]3c4c2cc(C(C)c2ccccc2)c2c5c(cc(c24)CC3)OCO5)c1OC.[Br-] (stereo not drawn),4
4,COc1ccc2c(c[n+]3c4c2cc(Cc2ccc(F)c(C(F)(F)F)c2)c2c5c(cc(c24)CC3)OCO5)c1OC.[Br-],32
5,COc1ccc2c(c[n+]3c4c2cc(Cc2cccnc2)c2c5c(cc(c24)CC3)OCO5)c1OC.[Br-],32
6,COc1ccc2c(c[n+]3c4c2cc(Cc2c(F)cccc2F)c2c5c(cc(c24)CC3)OCO5)c1OC.[Br-],8

# Test system: Staphylococcus aureus
# Assay: Antibacterial activity against methicillin-resistant Staphylococcus aureus 13-18 clinical isolate after 18 hrs by agar dilution method
# Format: functional
# Conditions: 13-18, 18 h
row,Structure (SMILES),MIC [µg/mL]
1,COc1ccc2c(c[n+]3c4c2cc(Cc2cc(C)cc(C)c2)c2c5c(cc(c24)CC3)OCO5)c1OC.[Br-],4
2,COc1ccc2c(c[n+]3c4c2cc(Cc2cccc(C)c2)c2c5c(cc(c24)CC3)OCO5)c1OC.[Br-],4
3,COc1ccc2c(c[n+]3c4c2cc(C(C)c2ccccc2)c2c5c(cc(c24)CC3)OCO5)c1OC.[Br-] (stereo not drawn),2
4,COc1ccc2c(c[n+]3c4c2cc(Cc2ccc(F)c(C(F)(F)F)c2)c2c5c(cc(c24)CC3)OCO5)c1OC.[Br-],16
5,COc1ccc2c(c[n+]3c4c2cc(Cc2cccnc2)c2c5c(cc(c24)CC3)OCO5)c1OC.[Br-],32
6,COc1ccc2c(c[n+]3c4c2cc(Cc2c(F)cccc2F)c2c5c(cc(c24)CC3)OCO5)c1OC.[Br-],4

# Test system: Staphylococcus aureus
# Assay: Antibacterial activity against methicillin-resistant Staphylococcus aureus 13-23 clinical isolate after 18 hrs by agar dilution method
# Format: functional
# Conditions: 13-23, 18 h
row,Structure (SMILES),MIC [µg/mL]
1,COc1ccc2c(c[n+]3c4c2cc(Cc2cc(C)cc(C)c2)c2c5c(cc(c24)CC3)OCO5)c1OC.[Br-],4
2,COc1ccc2c(c[n+]3c4c2cc(Cc2cccc(C)c2)c2c5c(cc(c24)CC3)OCO5)c1OC.[Br-],4
3,COc1ccc2c(c[n+]3c4c2cc(C(C)c2ccccc2)c2c5c(cc(c24)CC3)OCO5)c1OC.[Br-] (stereo not drawn),2
4,COc1ccc2c(c[n+]3c4c2cc(Cc2ccc(F)c(C(F)(F)F)c2)c2c5c(cc(c24)CC3)OCO5)c1OC.[Br-],32
5,COc1ccc2c(c[n+]3c4c2cc(Cc2cccnc2)c2c5c(cc(c24)CC3)OCO5)c1OC.[Br-],32
6,COc1ccc2c(c[n+]3c4c2cc(Cc2c(F)cccc2F)c2c5c(cc(c24)CC3)OCO5)c1OC.[Br-],4

# Test system: Staphylococcus aureus
# Assay: Antibacterial activity against methicillin-resistant Staphylococcus aureus 16-30 clinical isolate after 18 hrs by agar dilution method
# Format: functional
# Conditions: 16-30, 18 h
row,Structure (SMILES),MIC [µg/mL]
1,COc1ccc2c(c[n+]3c4c2cc(Cc2cc(C)cc(C)c2)c2c5c(cc(c24)CC3)OCO5)c1OC.[Br-],4
2,COc1ccc2c(c[n+]3c4c2cc(Cc2cccc(C)c2)c2c5c(cc(c24)CC3)OCO5)c1OC.[Br-],2
3,COc1ccc2c(c[n+]3c4c2cc(C(C)c2ccccc2)c2c5c(cc(c24)CC3)OCO5)c1OC.[Br-] (stereo not drawn),2
4,COc1ccc2c(c[n+]3c4c2cc(Cc2ccc(F)c(C(F)(F)F)c2)c2c5c(cc(c24)CC3)OCO5)c1OC.[Br-],16
5,COc1ccc2c(c[n+]3c4c2cc(Cc2cccnc2)c2c5c(cc(c24)CC3)OCO5)c1OC.[Br-],32
6,COc1ccc2c(c[n+]3c4c2cc(Cc2c(F)cccc2F)c2c5c(cc(c24)CC3)OCO5)c1OC.[Br-],4

# Test system: Staphylococcus aureus
# Assay: Antibacterial activity against methicillin-resistant Staphylococcus aureus 16-34 clinical isolate after 18 hrs by agar dilution method
# Format: functional
# Conditions: 16-34, 18 h
row,Structure (SMILES),MIC [µg/mL]
1,COc1ccc2c(c[n+]3c4c2cc(Cc2cc(C)cc(C)c2)c2c5c(cc(c24)CC3)OCO5)c1OC.[Br-],4
2,COc1ccc2c(c[n+]3c4c2cc(Cc2cccc(C)c2)c2c5c(cc(c24)CC3)OCO5)c1OC.[Br-],2
3,COc1ccc2c(c[n+]3c4c2cc(C(C)c2ccccc2)c2c5c(cc(c24)CC3)OCO5)c1OC.[Br-] (stereo not drawn),2
4,COc1ccc2c(c[n+]3c4c2cc(Cc2ccc(F)c(C(F)(F)F)c2)c2c5c(cc(c24)CC3)OCO5)c1OC.[Br-],64
5,COc1ccc2c(c[n+]3c4c2cc(Cc2cccnc2)c2c5c(cc(c24)CC3)OCO5)c1OC.[Br-],32
6,COc1ccc2c(c[n+]3c4c2cc(Cc2c(F)cccc2F)c2c5c(cc(c24)CC3)OCO5)c1OC.[Br-],2

# Test system: not listed separately
# Assay: Stability of the compound in Sprague-Dawley rat whole blood assessed as parent compound remaining after 1 hr by LC-MS/MS analysis
# Format: ADME, tissue-based
# Conditions: read-out: Stability
row,Structure (SMILES),remaining at 1 h [%]
1,COc1ccc2c(c[n+]3c4c2cc(C(C)c2ccccc2)c2c5c(cc(c24)CC3)OCO5)c1OC.[Br-] (stereo not drawn),91.2

# Test system: not listed separately
# Assay: Stability of the compound in Sprague-Dawley rat whole blood assessed as parent compound remaining after 24 hrs by LC-MS/MS analysis
# Format: ADME, tissue-based
# Conditions: read-out: Stability
row,Structure (SMILES),remaining at 24 h [%]
1,COc1ccc2c(c[n+]3c4c2cc(C(C)c2ccccc2)c2c5c(cc(c24)CC3)OCO5)c1OC.[Br-] (stereo not drawn),77.3

# Test system: not listed separately
# Assay: Toxicity in iv dosed Kunming mouse administered as single dose measured for 7 days
# Format: organism-based
# Conditions: in vivo
row,Structure (SMILES),LD50 at 168 h [mg/kg]
1,COc1ccc2c(c[n+]3c4c2cc(C(C)c2ccccc2)c2c5c(cc(c24)CC3)OCO5)c1OC.[Br-] (stereo not drawn),41.2

# Source: ChEMBL document CHEMBL4270624, “Synthesis and antibacterial evaluation of 13-substituted cycloberberine derivatives as a novel class of anti-MRSA agents” (Eur J Med Chem, 2018)
